Data taken from patent publication US9572760B2, “Uses of compounds and mixtures from Antrodia cinnamomea mycelia” (Simpson Biotech Co., Ltd., priority 2013, dated 2017).

Tests used:
B16F10 cells = test: Melanin content in B16F10 cells after UV irradiation; type: cell-based, murine; settings: 10 μM for 72 hrs prior to UV irradiation; UV alone 33.80±4.6% increase over non-UV cells (7.4±0.3 μg/mg protein)
Description: The dermal fibroblast cell line CG1639 was obtained from the BCRC (Bioresource Collection and Research Center) and cultured in Dulbecco's modified Eagle media (DMEM, Gibco by Invitrogen) with 1% antibiotic antimycotic (Gibco by Invitrogen) and 15% fetal bovine serum (Gibco by Invitrogen). The fetal rat skin keratinocyte, FRSK cell line was obtained from the Japan HSRRB (Health Science Research Resources Bank) and cultured in Eagle's minimal essential media (MEM, Gibco by Invitrogen) supplemented with 10% fetal bovine serum (FBS) (Gibco by Invitrogen) and 1% antibiotic antimycotic (Gibco by Invitrogen). B16F10 cells, a murine melanoma cell line, were purchased from American Type Culture Collection (ATCC, Rockville, Md., USA) and was cultured in Eagle's Minimum Essential Medium (MEM; Sigma, St. Louis, Mo.) supplemented with 10% fetal bovine serum (FBS; HyClone Lab. Inc., Logan, Utah), 0.02% antibiotic-antimycotic liquid (penicillin, 10 000 U mL^−1; streptomycin, 10 000 μg mL^−1 and amphotericin B, 25 μg mL^−1; Invitrogen, Carlsbad, Calif.).
To investigate the induction of melanogenesis and the oxidative stress by direct UV irradiation, melanoma cells and keratocytes were irradiated with 8 J cm^−2 of UVA (FL15BLB, 352 nm, 15 W; Toshiba, Tokyo, Japan) and 10 mJ cm^−2 of UVB (G15T8E, 306 nm, 15 W; Sankyo Denki, Tokyo, Japan) in a HANKS' balanced salt solution (Sigma). The UV intensity was measured by using a Model UVX Digital Radiometer (UVP Inc., Upland, Calif.).
B16F10 and FRSK cells were exposed to Hepasim compounds A-D by two different concentrations (3 or 10 μM) for 72 hrs prior to UVA irradiation. DMEM was replaced with phosphate buffered saline (PBS) to avoid generation of medium-derived toxic photoproducts prior to UV irradiation. Cells were collected 24 hrs after UVA irradiation and assayed. For preparation of cell lysate, the harvested cells were pelleted by centrifugation and lysed in lysis buffer containing 50 mM Tris-HCl, 10 mM ethylene diaminetetraacetic acid (EDTA), 1% (v/v) Tri-ton X-100, phenylmethylsulfonyl fluoride (PMSF) (100 mg/ml) and pepstatin A (1 mg/ml) in DMSO and leupeptin (1 mg/ml) in H2O, pH 6.8. The cells were centrifuged at 10,000 rpm for 10 min and the total cell lysate was collected and stored at −80° C.
In order to measure the melanin contents, B16F10 cells were sonicated on ice and the mixture was centrifuged (25 000 g, 10 min, 4° C.). The supernatant was transferred, and pellets were dissolved in 0.85 N KOH at 60° C. for 20 min. Standard melanin (Sigma) was incubated in parallel. Spectrophotometric analysis of melanin content was then performed at an absorbance of 405 nm

cirrhotic animals [1] = test: Redox status (Glutathione level, GSH:GSSG ratio) in cirrhotic animals; type: in vivo, Wistar rats; settings: compound B 7 mg/kg, compound C 14 mg/kg
Description: A commercially available kit (# K264-100, BioVision) was used to measure glutathione (GSH), and oxidized glutathione (GSSG). […] The assay was conducted with several modifications to the manufacturer's directions. Briefly, cellular pellet (˜10 mg) was homogenized immediately, and take 60 μl of each sample to a prechilled tube containing Perchloric Acid and centrifuged at 13,000×g for 2 min, collect supernatant and stored at −80° C. until analyzed. The assay was conducted as described by the manufacturer. Briefly, cold 3N KOH was added to each sample mixed, and centrifuged at 13,000×g for 10 min. Ten microliters of each sample and the appropriate buffer and 90 μl of Assay Buffer to detect GSH and 10 μl of glutathione reductase were mixed to detect total glutathione and 10 μl of GSH Quencher to detect GSSG and incubated at room temperature for 40 min and the absorbance of each sample was read at 340/420 nm for 3 min. The protein concentration for each sample was determined via a DC protein concentration assay (Bio-Rad). Signals from each sample were normalized to the corresponding protein content of that sample.

cirrhotic animals [2] = test: Liver fibrosis: hydroxyproline content in the liver and Sirius red staining, DEN cirrhotic animal model; settings: compound B 7 mg/kg, compound C 14 mg/kg, ACM 320 mg/kg, vs control group

CC(C)=CCOc1ccc(C2=C(CC(C)C)C(=O)N(O)C2=O)cc1 [Compound C, 3-isobutyl-4-[4-(3-methyl-2-butenyloxy)phenyl]-1H-pyrrol-1-ol-2,5-dione]
melanin production in UV-irradiated B16F10 cells (B16F10 cells): 28.92±5.3%
Redox status: GSH:GSSG ratio (cirrhotic animals [1]): significantly improved
Redox status: Glutathione level (cirrhotic animals [1]): significantly improved
liver cirrhosis (hydroxyproline levels and Sirius red-positive areas) (cirrhotic animals [2]): markedly ameliorated

CC(C)=CCOc1ccc(C2=C(CC(C)C)C(=O)NC2=O)cc1 [Compound B, 3-isobutyl-4-[4-(3-methyl-2-butenyloxy)phenyl]-1H-pyrrol-2,5-dione]
melanin production in UV-irradiated B16F10 cells (B16F10 cells): 29.40±4.3%
Redox status: GSH:GSSG ratio (cirrhotic animals [1]): significantly improved
Redox status: Glutathione level (cirrhotic animals [1]): significantly improved
liver cirrhosis (hydroxyproline levels and Sirius red-positive areas) (cirrhotic animals [2]): markedly ameliorated
